The numbers were not newly measured in patent publication EP2117510B1, “PARENTERAL PHARMACEUTICAL COMPOSITION AND METHOD FOR PREPARING THE SAME” (Physica Pharma, priority 2007, dated 2008), which cites them from elsewhere.

Each structure is given as a SMILES string.

The conditions of the data set: water, room temperature (environ 22° C).

Consider `CC(C)c1cccc(C(C)C)c1O` [Propofol, 2,6-diisopropylphénol], for which the “solubilité dans l'eau” value is ~160 µg/mL.
